Target: T1, human neutrophil elastase (Homo sapiens, UniProt P08246)
T1 construct: purchased Elastin Products Company
T1 sequence (P08246 30-267): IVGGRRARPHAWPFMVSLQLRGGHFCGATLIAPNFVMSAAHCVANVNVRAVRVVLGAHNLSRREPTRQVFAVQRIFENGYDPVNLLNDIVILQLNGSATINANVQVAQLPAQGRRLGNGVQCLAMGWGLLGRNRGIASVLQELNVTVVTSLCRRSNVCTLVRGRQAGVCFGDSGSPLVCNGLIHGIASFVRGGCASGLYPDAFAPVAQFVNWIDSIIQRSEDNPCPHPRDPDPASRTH
Experiment: Inhibitory action 2 against human neutrophil elastase (Test Example 2; fluorogenic substrate MeOSuc-AAPV-AMC, buffer with 400 mM NaCl, 0.2 mg/ml BSA)
Assay type: biochemical
Conditions: 37° C., read-out: IC50 value (compound concentration required for 50% inhibition of human neutrophil elastase)
Method: Assay buffer (0.4 unit/ml HNE (human neutrophil elastase, available from Elastin Products Company), 200 mM HEPES [N-(2-hydroxyethyl)piperazine-N′-(2-ethanesulfonic acid)], pH 7.5, 400 mM NaCl, 0.2 mg/ml BSA (bovine serum albumin)) 100 μl, water for injection 20 μl and 1% DMSO (dimethyl sulfoxide) solution of the present compound 20 μl were mixed in a 96 well plate and the mixed solutions were pre-incubated at 37° C. for five minutes. After pre-incubation, MeOSuc-AAPV-AMC (methoxysuccinyl-alanyl-alanyl-prolyl-valyl-aminomethyl cumaride (available from Sigma Aldrich Corp.) solution as fluorogenic substrate (which was dissolved in 10% DMSO solution so as to adjust to 0.5 mM) 40 μl was added to the above-prepared mixed solution so as to initiate the reaction, and the mixture was incubated at 37° C. for five minutes. The fluorescence intensity of AMC was measured at an excitation wavelength of 380 nm and a fluorescence wavelength of 460 nm and the inhibition ratio was determined.

Compound	IC50 [µM]
Cc1c(-c2c(S(N)(=O)=O)cnn2-c2ccc(C#N)cc2)c(=O)n(C)c(=O)n1-c1cccc(C(F)(F)F)c1 [Example 205, 1-(4-cyanophenyl)-5-(3,6-dimethyl-2,4-dioxo-1-(3-trifluoromethylphenyl)-1,2,3,4-tetrahydropyrimidin-5-yl)-1H-pyrazole-4-sulfonamide]	0.015
Cc1c(-c2c(F)cnn2-c2ccc(C#N)cc2)c(=O)n(C)c(=O)n1-c1cccc(C(F)(F)F)c1 [Example 358, 4-(5-(3,6-dimethyl-2,4-dioxo-1-(3-trifluoromethylphenyl)-1,2,3,4-tetrahydropyrimidin-5-yl)-4-fluoro-1H-pyrazol-1-yl)benzonitrile]	0.0295
Cc1c(-c2ccnn2-c2ccc(C#N)cc2)c(=O)n(C(C)CCNC2CC(F)(F)C2)c(=O)n1-c1cccc(C(F)(F)F)c1 (stereo not drawn) [Example 406]	0.0129
Cc1c(-c2c(C#N)cnn2-c2ccc(C#N)cc2)c(=O)n(C)c(=O)n1-c1cccc(C(F)(F)F)c1 [Example 363, 1-(4-Cyanophenyl)-5-(3,6-dimethyl-2,4-dioxo-1-(3-trifluoromethyl)-1,2,3,4-tetrahydropyrimidin-5-yl)-1H-pyrazole-4-carbonitrile]	0.0191
Cc1c(-c2ccnn2-c2ccc(C#N)cc2F)c(=O)n(C)c(=O)n1-c1cccc(C(F)(F)F)c1 [Example 326]	0.0243
Cc1c(-c2c(S(=O)(=O)N3CCOCC3)cnn2-c2ccc(C#N)cc2)c(=O)n(C)c(=O)n1-c1cccc(C(F)(F)F)c1 [Example 221]	0.0198
Cc1c(-c2c(CN3CC(F)(F)C3)cnn2-c2ccc(C#N)cc2)c(=O)n(C)c(=O)n1-c1cccc(C(F)(F)F)c1 [Example 305]	0.022
Cc1c(-c2ccnn2-c2ccc(C#N)cc2)c(=O)n(C(C)CNS(C)(=O)=O)c(=O)n1-c1cccc(C(F)(F)F)c1 (stereo not drawn) [Example 393]	0.0263
Cc1c(-c2c(N3CCOCC3)cnn2-c2ccc(C#N)cc2)c(=O)n(C)c(=O)n1-c1cccc(C(F)(F)F)c1 [Example 315, 4-(5-(3,6-Dimethyl-2,4-dioxo-1-(3-trifluoromethylphenyl)-1,2,3,4-tetrahydropyrimidin-5-yl)-4-morpholino-1H-pyrazol-1-yl)benzonitrile]	0.0242
CCc1c(-c2ccnn2-c2ccc(C#N)cc2)c(=O)n(C)c(=O)n1-c1cccc(C(F)(F)F)c1 [Example 50, 4-(5-(6-ethyl-3-methyl-2,4-dioxo-1-(3-(trifluoromethyl)phenyl)-1,2,3,4-tetrahydropyrimidin-5-yl)-1H-pyrazol-1-yl)benzonitrile]	0.0137
CCn1c(=O)c(-c2c(C(C)(C)O)cnn2-c2ccc(C#N)cc2)c(C)n(-c2cccc(C(F)(F)F)c2)c1=O [Example 288, 4-(5-(3-ethyl-6-methyl-2,4-dioxo-1-(3-trifluoromethylphenyl)-1,2,3,4-tetrahydropyrimidin-5-yl)-4-(2-hydroxypropan-2-yl)-1H-pyrazol-1-yl)benzonitrile]	0.0262
N#Cc1ccc(-n2nccc2-c2cn(-c3cccc(C(F)(F)F)c3)c(=O)n([C@@H]3CNC(=O)C3)c2=O)cc1 [Example 90]	0.353
COC(=O)NS(=O)(=O)c1cnn(-c2ccc(C#N)cc2)c1-c1c(C)n(-c2cccc(C(F)(F)F)c2)c(=O)n(C)c1=O [Example 252]	0.0206
Cc1cc(C#N)ccc1-n1nccc1-c1c(C)n(-c2cccc(C(F)(F)F)c2)c(=O)n(C)c1=O [Example 328]	0.0248
COCCNC(=O)c1cnn(-c2ccc(C#N)cc2)c1-c1c(C)n(-c2cccc(C(F)(F)F)c2)c(=O)n(C)c1=O [Example 178]	0.0135
CNS(=O)(=O)c1cnn(-c2ccc(C#N)cc2)c1-c1c(C)n(-c2cccc(C(F)(F)F)c2)c(=O)n(C)c1=O [Example 218]	0.0147
CC(=O)N1CCC(n2c(=O)c(-c3c(F)cnn3-c3ccc(C#N)cc3)c(C)n(-c3cccc(C(F)(F)F)c3)c2=O)CC1 [Example 359]	0.0153
Cc1c(-c2c(N3CCN(C(C)C)CC3)cnn2-c2ccc(C#N)cc2)c(=O)n(C)c(=O)n1-c1cccc(C(F)(F)F)c1 [Example 318]	0.0149
Cc1c(-c2ccnn2-c2ccc(C#N)cc2)c(=O)n(C(C)C(=O)N2CC(O)C2)c(=O)n1-c1cccc(C(F)(F)F)c1 (stereo not drawn) [Example 383]	0.0128

Next, values leading:

IC50 [µM]	Compound
0.0088	Cc1c(-c2c(S(N)(=O)=O)cnn2-c2ccc(C#N)cc2)c(=O)n(C)c(=O)n1-c1cccc(C(F)(F)F)c1 [Example 211, (+)-1-(4-cyanophenyl)-5-(3,6-dimethyl-2,4-dioxo-1-(3-trifluoromethylphenyl)-1,2,3,4-tetrahydropyrimidin-5-yl)-1H-pyrazole-4-sulfonamide 0.5 IPA solvates]
0.0101	Cc1c(-c2ccnn2-c2ccc(C#N)cc2)c(=O)n(C(C)CN2CCOCC2)c(=O)n1-c1cccc(C(F)(F)F)c1 (stereo not drawn) [Example 386]
0.0104	Cc1c(-c2ccnn2-c2ccc(C#N)cc2)c(=O)n(C(C)CN2CC(O)C2)c(=O)n1-c1cccc(C(F)(F)F)c1 (stereo not drawn) [Example 390]
0.0087	Cc1c(-c2c(C(=O)NC3CC3)cnn2-c2ccc(C#N)cc2)c(=O)n(C)c(=O)n1-c1cccc(C(F)(F)F)c1 [Example 179]
0.0102	Cc1c(-c2ccnn2-c2ccc(C#N)cc2)c(=O)n(C2CCN(C(=O)C(C)(C)N)CC2)c(=O)n1-c1cccc(C(F)(F)F)c1 [Example 357]
0.0116	Cc1c(-c2c(S(C)(=O)=O)cnn2-c2ccc(C#N)cc2)c(=O)n(C)c(=O)n1-c1cccc(C(F)(F)F)c1 (single isomer, unassigned) [Example 267]
0.0035	Cc1c(-c2ccnn2-c2ccc(C#N)cc2)c(=O)n(C(C)C)c(=O)n1-c1cccc(C(F)(F)F)c1 [Example 42, 4-(5-(3-isopropyl-6-methyl-2,4-dioxo-1-(3-(trifluoromethyl)phenyl)-1,2,3,4-tetrahydropyrimidin-5-yl)-1H-pyrazol-1-yl)benzonitrile]
0.0077	CCNC(=O)NS(=O)(=O)c1cnn(-c2ccc(C#N)cc2)c1-c1c(C)n(-c2cccc(C(F)(F)F)c2)c(=O)n(C)c1=O [Example 257]
0.0055	Cc1c(-n2cnnc2-c2ccc(C#N)cc2)c(=O)n(C(C)C)c(=O)n1-c1cccc(C(F)(F)F)c1 [Example 65, 4-(4-(3-Isopropyl-6-methyl-2,4-dioxo-1-(3-(trifluoromethyl)phenyl)-1,2,3,4-tetrahydropyrimidin-5-yl)-4H-1,2,4-triazol-3-yl)benzonitrile]
0.0054	Cc1c(-c2c(C(=O)N(C)C)cnn2-c2ccc(C#N)cc2)c(=O)n(C(C)C)c(=O)n1-c1cccc(C(F)(F)F)c1 [Example 153]
0.0077	Cc1c(-c2c(S(=O)(=O)N3CCOC3=O)cnn2-c2ccc(C#N)cc2)c(=O)n(C)c(=O)n1-c1cccc(C(F)(F)F)c1 [Example 239]
0.0072	Cc1c(-c2c(S(=O)(=O)NC(=O)C3CCCCC3)cnn2-c2ccc(C#N)cc2)c(=O)n(C)c(=O)n1-c1cccc(C(F)(F)F)c1 [Example 261]
0.0073	CCCN1CCC(n2c(=O)c(-c3ccnn3-c3ccc(C#N)cc3)c(C)n(-c3cccc(C(F)(F)F)c3)c2=O)C1 (stereo not drawn) [Example 343]
0.0081	Cc1c(-c2ccnn2-c2ccc(C#N)cc2)c(=O)n(C2CCN(C(=O)C(C)(C)O)CC2)c(=O)n1-c1cccc(C(F)(F)F)c1 [Example 355]
0.0114	CCn1c(=O)c(-c2c(C(=O)N(C)CCO)cnn2-c2ccc(C#N)cc2)c(C)n(-c2cccc(C(F)(F)F)c2)c1=O [Example 176]
0.0119	Cc1c(-c2c(S(=O)(=O)NC(=O)c3ccccc3)cnn2-c2ccc(C#N)cc2)c(=O)n(C)c(=O)n1-c1cccc(C(F)(F)F)c1 [Example 249]
0.0078	Cc1c(-c2c(S(=O)(=O)NCCO)cnn2-c2ccc(C#N)cc2)c(=O)n(C)c(=O)n1-c1cccc(C(F)(F)F)c1 [Example 227]
0.0063	Cc1c(-c2c(Cl)cnn2-c2ccc(C#N)cc2)c(=O)n(C(C)C(N)=O)c(=O)n1-c1cccc(C(F)(F)F)c1 (stereo not drawn) [Example 361]
0.0089	Cc1c(-c2ccnn2-c2ccc(C#N)cc2)c(=O)n(C(C)CN2CCC(S(C)(=O)=O)CC2)c(=O)n1-c1cccc(C(F)(F)F)c1 (stereo not drawn) [Example 387]
0.0123	Cc1c(-c2ccnn2-c2ccc(C#N)cc2)c(=O)n([C@H](C)CS(C)(=O)=O)c(=O)n1-c1cccc(C(F)(F)F)c1 [Example 375]
0.0126	CCn1c(=O)c(-c2ccnn2-c2ccc(C#N)cc2)c(C)n(-c2cccc(C(F)(F)F)c2)c1=O [Example 41, 4-(5-(3-ethyl-6-methyl-2,4-dioxo-1-(3-(trifluoromethyl)phenyl)-1,2,3,4-tetrahydropyrimidin-5-yl)-1H-pyrazol-1-yl)benzonitrile]
0.0045	CC(=O)N1CCC(n2c(=O)c(-c3ccnn3-c3ccc(C#N)cc3)c(C)n(-c3cccc(C(F)(F)F)c3)c2=O)CC1 [Example 337]
0.012	Cc1c(-c2c(S(C)(=O)=O)cnn2-c2ccc(C#N)cc2)c(=O)n(C(C)C)c(=O)n1-c1cccc(C(F)(F)F)c1 (racemic) [Example 276, (±)-4-(5-(3-Isopropyl-6-methyl-2,4-dioxo-1-(3-trifluoromethylphenyl)-1,2,3,4-tetrahydropyrimidin-5-yl-4-(methylsulfonyl)-1H-pyrazol-1-yl)benzonitrile]

From US9040516B2, “Uracil derivative and use thereof for medical purposes” (SUMITOMO DAINIPPON PHARMA CO., LTD., priority 2011, dated 2015)
